Experiments:
[1] = test system: patient suffering from transient or short term insomnia; test: Treatment of a patient with transient or short term insomnia; assay type: in vivo, human
From the text: A patient suffers from transient or short term insomnia. The patient is otherwise healthy with normal affect with no depression, anxiety or substance overuse. The patient is prescribed desmethyldoxepin in a daily dosage of 1 milligram, prior to bedtime.
A patient suffers from transient or short term insomnia. The patient is otherwise healthy with normal affect with no depression, anxiety or substance overuse. The patient is prescribed desmethyldoxepin in a daily dosage of 2 milligrams, prior to bedtime.
A patient suffers from transient or short term insomnia. The patient also suffers from depression. The patient is prescribed desmethyldoxepin in a daily dosage of 2 milligrams, prior to bedtime.
A patient suffers from transient or short term insomnia. The patient is otherwise healthy with normal affect with no depression, anxiety or substance overuse. The patient is prescribed desmethyldoxepin in a daily dosage of 5 milligrams, prior to bedtime.
A patient suffers from transient or short term insomnia. The patient also suffers from depression. The patient is prescribed desmethyldoxepin in a daily dosage of 5 milligrams, prior to bedtime.
A patient suffers from transient or short term insomnia. The patient is otherwise healthy with normal affect with no depression, anxiety or substance overuse. The patient is prescribed desmethyldoxepin in a daily dosage of 10 milligrams, prior to bedtime.
A patient suffers from transient or short term insomnia. The patient also suffers from depression. The patient is prescribed desmethyldoxepin in a daily dosage of 10 milligrams, prior to bedtime.
A patient suffers from transient or short term insomnia. The patient is otherwise healthy with normal affect with no depression, anxiety or substance overuse. The patient is prescribed desmethyldoxepin in a daily dosage of 20 milligrams prior to bedtime.
A patient suffers from transient or short term insomnia. The patient also suffers from depression. The patient is prescribed desmethyldoxepin in a daily dosage of […] prior to bedtime.
A patient suffers from transient or short term insomnia. The patient is otherwise healthy with normal affect with no depression, anxiety or substance overuse. The patient is prescribed desmethyldoxepin in a daily dosage of 150 milligrams prior to bedtime.
A patient suffers from transient or short term insomnia. The patient also suffers from depression. The patient is prescribed desmethyldoxepin in a daily dosage of 150 milligrams prior to bedtime.

[2] = test system: patient suffering from chronic insomnia; test: Treatment of a patient with chronic insomnia; assay type: in vivo, human
From the text: A patient suffers from chronic insomnia. The patient is otherwise healthy with normal affect with no depression, anxiety or substance overuse. The patient is prescribed desmethyldoxepin in a daily dosage of 2 milligrams prior to bedtime.
A patient suffers from chronic insomnia. The patient also suffers from depression. The patient is prescribed desmethyldoxepin in a daily dosage of 1 milligram prior to bedtime.
A patient suffers from chronic insomnia. The patient also suffers from depression. The patient is prescribed desmethyldoxepin in a daily dosage of 2 milligrams prior to bedtime.
A patient suffers from chronic insomnia. The patient is otherwise healthy with normal affect with no depression, anxiety or substance overuse. The patient is prescribed desmethyldoxepin in a daily dosage of 5 milligrams prior to bedtime.
A patient suffers from chronic insomnia. The patient also suffers from depression. The patient is prescribed desmethyldoxepin in a daily dosage of 5 milligrams prior to bedtime.
A patient suffers from chronic insomnia. The patient is otherwise healthy with normal affect with no depression, anxiety or substance overuse. The patient is prescribed desmethyldoxepin in a daily dosage of 10 milligrams prior to bedtime.
A patient suffers from chronic insomnia. The patient also suffers from depression. The patient is prescribed desmethyldoxepin in a daily dosage of 10 milligrams prior to bedtime.
A patient suffers from chronic insomnia. The patient is otherwise healthy with normal affect with no depression, anxiety or substance overuse. The patient is prescribed desmethyldoxepin in a daily dosage of 20 milligrams prior to bedtime.
A patient suffers from chronic insomnia. The patient also suffers from depression. The patient is prescribed desmethyldoxepin in a daily dosage of 20 milligrams prior to bedtime.
A patient suffers from chronic insomnia. The patient is otherwise healthy with normal affect with no depression, anxiety or substance overuse. The patient is prescribed desmethyldoxepin in a daily dosage of 150 milligrams prior to bedtime.
A patient suffers from chronic insomnia. The patient also suffers from depression. The patient is prescribed desmethyldoxepin in a daily dosage of 150 milligrams prior to bedtime.

[3] = daily dosage of 2 milligrams prior to bedtime, patient also suffers from depression
[4] = daily dosage of 2 milligrams prior to bedtime, patient otherwise healthy, no depression, anxiety or substance overuse
[5] = daily dosage of 5 milligrams prior to bedtime, patient also suffers from depression
[6] = daily dosage of 5 milligrams prior to bedtime, patient otherwise healthy, no depression, anxiety or substance overuse
[7] = daily dosage of 10 milligrams prior to bedtime, patient also suffers from depression
[8] = daily dosage of 10 milligrams prior to bedtime, patient otherwise healthy, no depression, anxiety or substance overuse
[9] = daily dosage of 20 milligrams prior to bedtime, patient otherwise healthy, no depression, anxiety or substance overuse
[10] = daily dosage of 150 milligrams prior to bedtime, patient also suffers from depression
[11] = daily dosage of 150 milligrams prior to bedtime, patient otherwise healthy, no depression, anxiety or substance overuse

Measured: relief of insomnia

CNCC/C=C1/c2ccccc2COc2ccccc21 [desmethyldoxepin, Desmethyldoxepin]
relieves the insomnia: [1]; daily dosage of 1 milligram prior to bedtime, patient otherwise healthy, no depression, anxiety or substance overuse | [1]; [3] | [1]; [4] | [1]; [5] | [1]; [6] | [1]; [7] | [1]; [8] | [1]; [9] | [1]; daily dosage of 20 prior to bedtime, patient also suffers from depression | [1]; [10] | [1]; [11] | [2]; daily dosage of 1 milligram prior to bedtime, patient also suffers from depression | [2]; [3] | [2]; [4] | [2]; [5] | [2]; [6] | [2]; [7] | [2]; [8] | [2]; daily dosage of 20 milligrams prior to bedtime, patient also suffers from depression | [2]; [9] | [2]; [10] | [2]; [11]

— patent US20130296413A1, “N-DESMETHYL-DOXEPIN AND METHODS OF USING THE SAME TO TREAT SLEEP DISORDERS” (Procom One, Inc., priority 2006, published 2013)
